The test system of one test is CT-26 cells. Kind of test: CT-26 two-flank model, abscopal effect (study 4). It is filed as in vivo, mice. As to the method:
The in vivo anti-tumor efficacy of the TLR4 agonist (CRX-601) was assessed in the murine CT-26 colon carcinoma syngeneic solid tumor model as a monotherapy and in combination with […] a therapeutic antibody (combination data not shown). Seven to eight week old female Balb/c mice (BALB/cAnNCrl, Charles River) were used in these studies. Murine CT-26 colon carcinoma cells (ATCC catalog number CRL-2638 lot #59227052) were cultured in RPMI growth medium supplemented with 10% fetal bovine serum (FBS) in a humidified 37° C. incubator with 5% CO2, CT-26 cells cultured in logarithmic growth were harvested from tissue culture flasks and centrifuged for 5 minutes at 450×g at 4° C. for ten minutes to pellet cells. The supernatant was discarded, and cells were washed in ice cold phosphate buffered saline (PBS) without calcium and magnesium and centrifuged again for 5 minutes at 450×g at 4° C. for ten minutes to pellet cells. […] Tumor volume was calculated using the formula (0.52)×(Length)×(Width^2). In study 3, tumor-free mice were re-challenged with CT-26 tumor cells as described above, on the opposite flank from the original inoculation site and tumor growth was monitored, as described above. […]
An abscopal effect is described as distant tumor regression after a local tumor treatment. […] Tumor size was monitored for both the right and left flank tumors. […]

The subject of test [1] is Murine EMT6 breast epithelial cells. Kind of test: EMT6 breast epithelial syngeneic solid tumor model. The test is classed as in vivo, Balb/c mice. As to the method:
The in vivo anti-tumor efficacy of the TLR4 agonist (CRX-601) was assessed in the murine EMT6 breast epithelial syngeneic solid tumor model as a monotherapy versus control and anti-PD-1 treatment. Seven to eight week old female Balb/c mice (BALB/cAnNHsd, Envigo) were used in these studies. Murine EMT6 breast epithelial cells (ATCC catalog number lot # CRL-2755) were cultured in RPMI growth medium supplemented with 10% fetal bovine serum (FBS) in a humidified 37° C. incubator with 5% CO2. EMT6 cells cultured in logarithmic growth were harvested from tissue culture flasks and centrifuged for 5 minutes at 450×g at 4° C. for ten minutes to pellet cells. The supernatant was discarded, and cells were washed in ice cold phosphate buffered saline (PBS) without calcium and magnesium and centrifuged again for 5 minutes at 450×g at 4′C for ten minutes to pellet cells. The cells were resuspended in sterile RPMI media without FBS and adjusted to a cell concentration of 1×10^6 cells/ml. 100 μl of the cell stock was implanted via subcutaneous injection into the right flank of each Balb/c mouse. After seven or nine days when the average tumor size reached approximately 100 mm^3, mice were randomized into study cohorts according to tumor size and the first treatment dose was given. The TLR4 agonist (CRX-601) or vehicle was dosed via a systemic intravenous dose once per week for three total doses. The CRX-601 vehicle was 0.5% Glycerol/4% Dextrose, eE 810115-V. The rat anti-mouse PD-1 receptor antibody (clone RMP1-14, BioXCell catalog # BE0146, lot #5792-599016J1) or Rat IgG2a isotype control antibody (BioXCell catalog # BE0089,lot #601416M1B) was dosed via an intraperitoneal injection given every other day for a total of three doses, with the first dose given concurrently with the first CRX-601 dose. Caliper measurements were taken three times per week to assess tumor growth, and mice with tumors >2,000 mm^3 for 2 consecutive measurements or mice with tumors which formed open ulcers were removed from the study. Tumor volume was calculated using the formula (0.52)×(Length)×(Width2). All studies were conducted in accordance with the GSK Policy on the Care, Welfare and Treatment of Laboratory Animals and were reviewed by the Institutional Animal Care and Use Committee at GSK. To determine significance of tumor growth inhibition, tumor volumes 19 days post first dose were compared between the different treatment groups. Treatments were compared by standard ANOVA methods followed by FDR adjustment for multiplicity. Response is square root of volume, for homoscedasticity (equal variance) reasons. Kaplan-Meier (KM) method was carried out to estimate the survival probability of different treatment groups at a given time. For these survival analyses, “Death” means crossing the tumor volume cutoff (2000 mm3). “Survival” means proportion of mice not “Dead”, and “Survival time” means days until “Death”. If a mouse crossed the volume cutoff between two measurement days, then the day of “Death” was estimated by linear interpolation. If a mouse crossed the volume cutoff more than once, the first crossing was used. Treatments were compared by the standard log-rank test for two treatments. The log-rank p-values were adjusted for multiplicity using the FDR (false discovery rate) method. Significance was defined as FDR<=0.05. All calculations and graphs were done using R software, version 3.2.3.

Several values for one entry are separate records, joined by “and”; a condition that tells them apart may be missing. Equal values may be shown once.

Consider `CCCCCCCCCCC[C@H](CC(=O)N[C@H]1[C@H](OC[C@H](NC(=O)C[C@@H](CCCCCCCCCCC)OCCCCCCCCCC)C(=O)O)O[C@H](CO)[C@@H](OP(=O)(O)O)[C@@H]1OC(=O)C[C@@H](CCCCCCCCCCC)OCCCCCCCCCC)OCCCCCCCCCC` [CRX-601], for which, in the test on CT-26 cells (study 4, liposomal CRX-601 IT 25 ug/mouse, vs blank liposome + rat IgG1, p=0.011), the “survival benefit compared to the control group” value was “significant survival benefit”. Further, the “abscopal effect on untreated distant tumor” value with CT-26 cells (study 4 group 2, left flank tumor IT injection, liposomal 25 ug/mouse, right flank tumor untreated, mouse #4 and #6) is given as “distant right flank tumor regression”. Further, in test [1] (25 ug CRX-601 IV, by day 33 post EMT6 inoculation, p-value=0.03), the “increase in survival compared to vehicle group 1” value was “statistically significant”. Besides, in test [1] (25 ug CRX-601 group, day 33), the “mice remained on study” value was 6 mice and the tumor free mice worked out at 4 mice. Further, the “tumor volumes of remaining tumor-bearing mice” value in test [1] (25 ug CRX-601 group, day 33, individual mice) was 649 mm^3 and 382 mm^3. In addition, the “tumor growth inhibition compared to vehicle group 1” value in test [1] (25 ug CRX-601 intravenous once per week x3 (+200 ug Rat IgG2a), 19 days after the initial dose, p-value<0.001) is recorded as “statistically significant tumor growth inhibition”. For the same compound, the “tumor growth inhibition compared to anti-PD-1 treatment group 3” value in test [1] (25 ug CRX-601 intravenous once per week x3, 19 days after the initial dose, p-value=0.041) is reported as “statistically significant tumor growth inhibition”.
